Reference: patent publication US10828317B2, “Method of treating bacterial infections” (priority 2016, dated 2020)

Key:
[1] = system: A. baumannii EN017; format: cell-based, Acinetobacter baumannii; conditions: combination FdUrd+trimethoprim+uridine, Table 8
[2] = system: K. pneumoniae EN0233; test: MIC; format: cell-based; conditions: combination FdUrd+trimethoprim+uridine, Table 19
[3] = system: K. pneumoniae EN0262; test: MIC, ESBL (+), KPC+; format: cell-based; conditions: combination FdUrd+trimethoprim+uridine, Table 19 and 21
[4] = system: E. coli EN0135; test: MIC, ESBL (SHV-2a); format: cell-based; conditions: combination FdUrd+trimethoprim+uridine, Table 19
[5] = system: S. aureus V86; test: MIC; format: cell-based; conditions: Uridine 0 μg/ml
[6] = system: A. baumannii EN007; test: MIC, WT (EN007 = EN0007); format: cell-based, Acinetobacter baumannii; conditions: combination FdUrd+trimethoprim+uridine
[7] = system: K. pneumoniae EN0401; test: MIC, Carbapenemase + ESBL; format: cell-based; conditions: combination FdUrd+trimethoprim+uridine, Table 19
[8] = system: K. pneumoniae EN0436; test: MIC, colistinR; format: cell-based; conditions: combination FdUrd+trimethoprim+uridine, Table 19
[9] = system: K. pneumoniae EN010; test: MIC, WT; format: cell-based, Klebsiella pneumoniae; conditions: combination FdUrd+trimethoprim+uridine, Table 8
[10] = system: E. coli EN013; format: cell-based, Escherichia coli; conditions: combination FdUrd+trimethoprim+uridine, Table 8
[11] = system: S. aureus no. 12; test: MIC vs S. aureus LMG 10147, MSSA; format: cell-based, Staphylococcus aureus; conditions: Uridine 0 μg/ml
[12] = system: K. pneumoniae EN0143; test: MIC, ESBL (SHV-12); format: cell-based; conditions: combination FdUrd+trimethoprim+uridine, Table 19
[13] = system: Helicobacter pylori APV00918; test: MIC; format: cell-based; conditions: combination FdUrd+trimethoprim+uridine, Table 22A
Excerpt: (§1) Inhibition of Heliobacter is important in view of increasing resistance and its association to gastric cancer.

[14] = system: Helicobacter pylori ATTC43504; test: MIC; format: cell-based; conditions: combination FdUrd+trimethoprim+uridine, Table 22A
Excerpt: as §1

[15] = system: P. aeruginosa EN015; format: cell-based, Pseudomonas aeruginosa; conditions: combination FdUrd+trimethoprim+uridine, Table 8
[16] = system: K. pneumoniae EN0437; test: MIC, colistinR; format: cell-based; conditions: combination FdUrd+trimethoprim+uridine, Table 19
[17] = system: P. aeruginosa EN005; conditions: combination FdUrd+trimethoprim+uridine, Table 8
[18] = system: S. aureus V308; test: MIC; format: cell-based
[19] = system: S. aureus strain no 13; test: MIC vs S. aureus LMG 15975, MRSA; conditions: Uridine 0 μg/ml
[20] = system: E. coli EN0139; test: MIC, ESBL (CTX-M-15); format: cell-based; conditions: combination FdUrd+trimethoprim+uridine, Table 19
[21] = system: E. coli EN0138; test: MIC, ESBL (CTX-M-9); format: cell-based; conditions: combination FdUrd+trimethoprim+uridine, Table 19
[22] = system: E. coli strain no 2; test: MIC vs E. coli LMG 15862, penicillin resistant; conditions: Table 26B
[23] = system: S. flexneri APV00906; test: microbe, parasite or virus in culture; format: cell-based; conditions: combination FdUrd+trimethoprim+uridine, Table 22A
Excerpt: as §1

[24] = system: S. aureus no. 11; test: MIC; format: cell-based
[25] = system: E. coli B EN0458; test: MIC; format: cell-based, Escherichia coli B; conditions: combination FdUrd+trimethoprim+uridine, Table 8
[26] = system: K. pneumoniae EN011; format: cell-based, Klebsiella pneumoniae; conditions: combination FdUrd+trimethoprim+uridine, Table 8
[27] = Iclaprim 0.008 μg/ml, Uridine 0 μg/ml
[28] = Iclaprim 0.008 μg/ml, Uridine 100 μg/ml
[29] = Iclaprim 0.03 μg/ml, Uridine 0 μg/ml
[30] = Iclaprim […], Uridine 100 μg/ml

O=c1[nH]c(=O)n([C@H]2C[C@H](O)[C@@H](CO)O2)cc1F [FdUrd, Fluorodeoxyuridine]
MIC [1]: 0.5 µg/mL | MIC [2]: 0.5 µg/mL | MIC [3]: 2 µg/mL | MIC [4]: 0.25 µg/mL | MIC FdUrd ([5]; Iclaprim 0.008 μg/ml): >4 µg/mL | MIC FdUrd ([5]; Iclaprim 0.03 μg/ml): >4 µg/mL | MIC FdUrd ([5]; Iclaprim 0.06 μg/ml): >4 µg/mL | MIC FdUrd ([5]; Iclaprim […]): >4 µg/mL | MIC ([6]; Table 8): >4 µg/mL | MIC ([6]; Table 19): >4 µg/mL | MIC [7]: >4 µg/mL | MIC [8]: 0.25 µg/mL | MIC [9]: 0.5 µg/mL | MIC [10]: 0.016 µg/mL | MIC FdUrd ([11]; Iclaprim 0.008 μg/ml): >4 µg/mL | MIC FdUrd ([11]; Iclaprim 0.03 μg/ml): >4 µg/mL | MIC FdUrd ([11]; Iclaprim […]): >4 µg/mL | MIC [12]: >4 µg/mL | MIC [13]: 0.06 µg/mL | MIC [14]: 0.06 µg/mL | MIC [15]: 1 µg/mL | MIC [16]: >4 µg/mL | MIC [17]: 0.25 µg/mL | MIC FdUrd ([18]; Iclaprim 0 μg/ml, Uridine 0 μg/ml): >16 µg/mL | MIC FdUrd ([18]; Iclaprim 0 μg/ml, Uridine 100 μg/ml): >16 µg/mL | MIC FdUrd [18, 27]: >4 µg/mL | MIC FdUrd [18, 28]: >4 µg/mL | MIC FdUrd [18, 29]: >4 µg/mL | MIC FdUrd ([18]; Iclaprim 0.06 μg/ml, Uridine 0 μg/ml): >4 µg/mL | MIC FdUrd ([18]; Iclaprim […], Uridine 0 μg/ml): >4 µg/mL | MIC FdUrd [18, 30]: >4 µg/mL | MIC FdUrd ([19]; Table 26A (isolate not given), Iclaprim 0.015): >0.5 µg/mL | MIC FdUrd ([19]; Table 26A (isolate not given), Iclaprim 0.03): >0.5 µg/mL | MIC FdUrd ([19]; Table 26A (isolate not given), Iclaprim 0.08): >0.5 µg/mL | MIC FdUrd ([19]; Table 30C, Iclaprim 0.008 μg/ml): >4 µg/mL | MIC FdUrd ([19]; Table 30C, Iclaprim 0.03 μg/ml): >4 µg/mL | MIC FdUrd ([19]; Table 30C, Iclaprim […]): >4 µg/mL | MIC [20]: 0.5 µg/mL | MIC [21]: 0.25 µg/mL | MIC FdUrd ([22]; Iclaprim 0, Uridine 0 μg/ml): >16 µg/mL | MIC FdUrd ([22]; Iclaprim 0, Uridine 100 μg/ml): >16 µg/mL | MIC FdUrd ([22]; Iclaprim 0, Uridine 300 μg/ml): >16 µg/mL | MIC FdUrd ([22]; Iclaprim 0, Uridine 500 μg/ml): >16 µg/mL | MIC FdUrd ([22]; Iclaprim 0.1, Uridine 0 μg/ml): >8 µg/mL | MIC FdUrd ([22]; Iclaprim 0.1, Uridine 100 μg/ml): >8 µg/mL | MIC FdUrd ([22]; Iclaprim 0.2, Uridine 0 μg/ml): >8 µg/mL | MIC [23]: >4 µg/mL | MIC FdUrd [24, 27]: >4 µg/mL | MIC FdUrd [24, 28]: >4 µg/mL | MIC FdUrd [24, 29]: >4 µg/mL | MIC FdUrd ([24]; Iclaprim 0.03 μg/ml, Uridine 100 μg/ml): >4 µg/mL | MIC FdUrd ([24]; Iclaprim […], Uridine 0 μg/ml): >4 µg/mL | MIC FdUrd [24, 30]: >4 µg/mL | MIC [25]: 0.032 µg/mL | MIC [26]: 0.064 µg/mL
